# Assay results: patent US8455475B2 (Gruenenthal GmbH, priority 2009, dated 2013)
# Target: T1, rat B1R (bradykinin receptor 1) (Rattus norvegicus, UniProt P97583)
# T1 construct: expressed in transfected cells; host or cells: CHO K1 cells
# T1 sequence (P97583 1-337): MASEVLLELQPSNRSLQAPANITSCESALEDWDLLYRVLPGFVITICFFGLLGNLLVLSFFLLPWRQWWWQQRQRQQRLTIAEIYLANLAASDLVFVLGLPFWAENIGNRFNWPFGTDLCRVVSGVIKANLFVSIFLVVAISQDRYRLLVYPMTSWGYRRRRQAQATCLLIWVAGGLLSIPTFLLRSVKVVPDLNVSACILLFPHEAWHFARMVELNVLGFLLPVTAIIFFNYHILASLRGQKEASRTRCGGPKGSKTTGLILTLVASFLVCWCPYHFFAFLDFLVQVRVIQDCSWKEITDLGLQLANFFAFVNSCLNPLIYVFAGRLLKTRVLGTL
# Assay: FLIPR Ca2+ assay (Fluo-4) on CHO K1 cells stably transfected with the B1R gene of the rat (rB1R cells): % inhibition at 10 μM / IC50, agonist Des-Arg9-bradykinin
# Format: cell-based
# Conditions: CHO-K1, rat B1R
# Protocol: The agonistic or antagonistic action of substances can be quantified on the bradykinin receptor 1 (B1R) of the human and rat species with ectopically expressing cell lines (CHO K1 cells) and with the aid of a Ca^2+-sensitive dyestuff (Fluo-4) in a fluorescent imaging plate reader (FLIPR). The figure in % activation is based on the Ca^2+ signal after addition of Lys-Des-Arg^9-bradykinin (0.5 nM) or Des-Arg^9-bradykinin (100 nM). Antagonists lead to a suppression of the Ca^2+ inflow after addition of the agonist. % inhibition compared with the maximum achievable inhibition is stated.
# The agonistic or antagonistic action of substances can be determined on the bradykinin receptor 1 (B1R) of the human and rat species with the following assay. In accordance with this assay, the Ca^2+ inflow through the channel is quantified with the aid of a Ca^2+-sensitive dyestuff (type Fluo-4, Molecular Probes Europe BV, Leiden, Holland) in a fluorescent imaging plate reader (FLIPR, Molecular Devices, Sunnyvale, USA).
# Chinese hamster ovary cells (CHO K1 cells) transfected stably with the human B1R gene (hB1R cells) or the B1R gene of the rat (rB1R cells) are used. For functional studies, these cells are plated out on black 96-well plates with a clear base (BD Biosciences, Heidelberg, Germany or Greiner, Frickenhausen, Germany) in a density of 20,000-35,000 cells/well. The cells are left overnight at 37° C. and 5% CO2 in culture medium (hB1R cells: Nutrient Mixture Ham's F12, Gibco Invitrogen GmbH, Karlsruhe, Germany or DMEM, Sigma-Aldrich, Taufkirchen, Germany; rB1R cells: D-MEM/F12, Gibco Invitrogen GmbH, Karlsruhe, Germany) with 10 vol. % FBS (foetal bovine serum, Gibco Invitrogen GmbH, Karlsruhe, Germany or PAN Biotech GmbH, Aidenbach, Germany). On the following day, the cells are loaded for 60 min at 37° C. with 2.13 μM Fluo-4 (Molecular Probes Europe BV, Leiden Holland) in HBSS buffer (Hank's buffered saline solution, Gibco Invitrogen GmbH, Karlsruhe, Germany) with 2.5 mM probenecid (Sigma-Aldrich, Taufkirchen, Germany) and 10 mM HEPES (Sigma-Aldrich, Taufkirchen, Germany). The plates are then washed 2× with HBSS buffer, and HBSS buffer which additionally contains 0.1% BSA (bovine serum albumin; Sigma-Aldrich, Taufkirchen, Germany), 5.6 mM glucose and 0.05% gelatine (Merck KGaA, Darmstadt, Germany) is added. After a further incubation of 20 minutes at room temperature, the plates are inserted into the FLIPR for the Ca^2+ measurement. Alternatively, the plates are washed with buffer A (15 mM HEPES, 80 mM NaCl, 5 mM KCl, 1.2 mM CaCl2, 0.7 mM MgSO4, 2 g/l glucose, 2.5 mM probenecid), buffer A is added and the plates are loaded with 2.5 μM Fluo-4 and 0.025% Pluronic F127 (Sigma-Aldrich, Taufkirchen, Germany). Thereafter, the cells are washed 2× with buffer A and incubated for 30 minutes at room temperature with buffer A, which additionally contains 0.05% BSA and 0.05% gelatine, and thereafter inserted into the FLIPR for the Ca^2+ measurement. The Ca^2+-dependent fluorescence is measured here before and after addition of substances (λex=488 nm, λem=540 nm). Quantification is by measurement of the highest fluorescence intensity (FC, fluorescence counts) over time.
# The FLIPR protocol consists of 2 additions of substance. Test substances (10 μM) are first pipetted on to the cells and the Ca^2+ inflow is compared with the control (hB1R: Lys-Des-Arg^9-bradykinin>=50 nM; rB1R: Des-Arg^9-bradykinin 10 μM). This gives the result in % activation based on the Ca^2+ signal after addition of Lys-Des-Arg^9-bradykinin (>=50 nM) or Des-Arg^9-bradykinin (10 μM). After incubation for 10-20 minutes, Lys-Des-Arg^9-bradykinin (hB1R) or Des-Arg^9-bradykinin (rB1R) in the concentration of the EC80 is applied and the inflow of Ca^2+ is likewise determined. Antagonists lead to a suppression of the Ca^2+ inflow. % inhibition compared with the maximum achievable inhibition is calculated.
# For determination of the IC50 value, the substances are added in various concentrations. […]
row,Compound,inhibition at 10 µM [%]
1,"COc1ccc(C(=O)N(C)C2CCc3ccc(C(=O)N4CCC5(CC4)CCN(c4ccncc4)CC5)cc32)c(Cl)c1 (centres unmarked) [IND_CC-201, 2-Chloro-4-methoxy-N-methyl-N-[6-(9-pyridin-4-yl-3,9-diazaspiro[5.5]undecane-3-carbonyl)-2,3-dihydro-1H-inden-1-yl]-benzamide]",99
2,"COc1ccc(C(=O)NC2CCc3ccc(C(=O)N4CCC5(CC4)CCN(c4ccncc4)CC5)cc32)c(Cl)c1 (centres unmarked) [IND_CC-211, 2-Chloro-4-methoxy-N-[6-(9-pyridin-4-yl-3,9-diazaspiro[5.5]undecane-3-carbonyl)-2,3-dihydro-1H-inden-1-yl]-benzamide]",104
3,"COc1ccc(C(=O)NC2CCc3ccc(C(=O)N4CCC5(CC4)CCN(c4ccc(C(F)(F)F)cc4)CC5)cc32)c(Cl)c1 (centres unmarked) [IND_CC-213, 2-Chloro-4-methoxy-N-[6-[9-[4-(trifluoromethyl)-phenyl]-3,9-diazaspiro[5.5]undecane-3-carbonyl]-2,3-dihydro-1H-inden-1-yl]-benzamide]",73
4,"O=C(NC1CCc2ccc(C(=O)N3CCC4(CC3)CCN(c3ccc(C(F)(F)F)cc3)CC4)cc21)c1cc(F)ccc1Cl (centres unmarked) [IND_CC-222, 2-Chloro-5-fluoro-N-[6-[9-[4-(trifluoromethyl)-phenyl]-3,9-diazaspiro[5.5]undecane-3-carbonyl]-2,3-dihydro-1H-inden-1-yl]-benzamide]",60
5,"Cc1cccc(Cl)c1S(=O)(=O)N(C)C1CCc2ccc(C(=O)N3CCC4(CC3)CCN(c3ccncc3)CC4)cc21 (centres unmarked) [IND_CC-227, 2-Chloro-N,6-dimethyl-N-[6-(9-pyridin-4-yl-3,9-diazaspiro[5.5]undecane-3-carbonyl)-2,3-dihydro-1H-inden-1-yl]-benzenesulfonic acid amide]",97
6,"O=C(NC1CCc2ccc(C(=O)N3CCC4(CC3)CCN(c3ccc(C(F)(F)F)cc3)CC4)cc21)c1cc(F)c(F)cc1Cl (centres unmarked) [IND_CC-230, 2-Chloro-4,5-difluoro-N-[6-[9-[4-(trifluoromethyl)-phenyl]-3,9-diazaspiro[5.5]undecane-3-carbonyl]-2,3-dihydro-1H-inden-1-yl]-benzamide]",104
7,"N#Cc1ccccc1C(=O)NC1CCc2ccc(C(=O)N3CCC4(CC3)CCN(c3ccc(C(F)(F)F)cc3)CC4)cc21 (centres unmarked) [IND_CC-235, 2-Cyano-N-[6-[9-[4-(trifluoromethyl)-phenyl]-3,9-diazaspiro[5.5]undecane-3-carbonyl]-2,3-dihydro-1H-inden-1-yl]-benzamide]",89
8,"Cc1cccc(Cl)c1S(=O)(=O)NC1CCc2ccc(C(=O)N3CCC4(CC3)CCN(c3ccc(C(F)(F)F)cc3)CC4)cc21 (centres unmarked) [IND_CC-239, 2-Chloro-6-methyl-N-[6-[9-[4-(trifluoromethyl)-phenyl]-3,9-diazaspiro[5.5]-undecane-3-carbonyl]-2,3-dihydro-1H-inden-1-yl]-benzenesulfonic acid amide]",71
9,"O=C(NC1CCc2ccc(C(=O)N3CCC4(CC3)CCN(c3ccc(C(F)(F)F)cc3)CC4)cc21)c1c(Cl)cccc1Cl (centres unmarked) [IND_CC-286, 2,6-Dichloro-N-[6-[9-[4-(trifluoromethyl)-phenyl]-3,9-diazaspiro[5.5]undecane-3-carbonyl]-2,3-dihydro-1H-inden-1-yl]-benzamide]",90
10,"COc1ccc(C(=O)NC2CCc3ccc(C(=O)N4CCC5(CC4)CCN(c4ccncc4)CC5)cc32)c(F)c1 (centres unmarked) [IND_CC-297, 2-Fluoro-4-methoxy-N-[6-(9-pyridin-4-yl-3,9-diazaspiro[5.5]undecane-3-carbonyl)-2,3-dihydro-1H-inden-1-yl]-benzamide]",107
11,"COc1ccc(C(=O)NC2CCc3ccc(C(=O)N4CCC5(CC4)CCN(c4ccncc4)C5)cc32)c(F)c1 (centres unmarked) [IND_CC-298, 2-Fluoro-4-methoxy-N-[6-(2-pyridin-4-yl-2,8-diazaspiro[4.5]decane-8-carbonyl)-2,3-dihydro-1H-inden-1-yl]-benzamide]",74
12,"Cc1cc(OC(F)(F)F)ccc1C(=O)NC1CCc2ccc(C(=O)N3CCC4(CC3)CCN(c3ccncc3)CC4)cc21 (centres unmarked) [IND_CC-300, 2-Methyl-N-[6-(9-pyridin-4-yl-3,9-diazaspiro[5.5]undecane-3-carbonyl)-2,3-dihydro-1H-inden-1-yl]-4-(trifluoromethyloxy)-benzamide]",65
13,"Cc1ccc(C(=O)NC2CCc3ccc(C(=O)N4CCC5(CC4)CCN(c4ccncc4)C5)cc32)c(F)c1 (centres unmarked) [IND_CC-306, 2-Fluoro-4-methyl-N-[6-(2-pyridin-4-yl-2,8-diazaspiro[4.5]decane-8-carbonyl)-2,3-dihydro-1H-inden-1-yl]-benzamide]",106
14,"COc1ccc(C(=O)NC2c3cc(C(=O)N4CCC5(CC4)CCN(c4ccncc4)CC5)ccc3CC2(C)C)c(F)c1 (centres unmarked) [IND_CC-311, N-[2,2-Dimethyl-6-(9-pyridin-4-yl-3,9-diazaspiro[5.5]undecane-3-carbonyl)-1,3-dihydro-inden-1-yl]-2-fluoro-4-methoxy-benzamide]",83
15,"COc1ccc(C(=O)NC2CCc3ccc(C(=O)N4CCC5(CCN(c6ccncc6)CC5)C4)cc32)c(F)c1 (centres unmarked) [IND_CC-313, 2-Fluoro-4-methoxy-N-[6-(8-pyridin-4-yl-2,8-diazaspiro[4.5]decane-2-carbonyl)-2,3-dihydro-1H-inden-1-yl]-benzamide]",95

# Same assay, conditions: rat B1R
row,Compound,% Inhibition (rat B1R) at 10 μM [%]
1,"2,3-Dichloro-N-methyl-N-[6-(9-pyridin-4-yl-3,9-diazaspiro[5.5]undecane-3-carbonyl)-2,3-dihydro-1H-inden-1-yl]-benzenesulfonic acid amide [IND_CC-343]",97
2,"2-Chloro-N-[6-[8-[(2-chloro-4-fluoro-phenyl)-methyl]-2,8-diazaspiro-[4.5]decane-2-carbonyl]-2,3-dihydro-1H-inden-1-yl]-6-fluoro-benzamide [IND_CC-741]",100
3,"2-Chloro-N-[6-[9-[(1-methyl-1H-benzotriazol-5-yl)-methyl]-3,9-diazaspiro[5.5]-undecane-3-carbonyl]-2,3-dihydro-1H-inden-1-yl]-5-(trifluoromethyl)-benzamide [IND_CC-697]",98
4,"2-Methyl-N-[6-(8-pyridin-4-yl-2,8-diazaspiro[4.5]decane-2-carbonyl)-2,3-dihydro-1H-inden-1-yl]-benzamide [IND_CC-358]",104
5,"5-Chloro-2-fluoro-N-[6-[8-[3-(3-fluorophenyl)-propyl]-2,8-diazaspiro[4.5]decane-2-carbonyl]-2,3-dihydro-1H-inden-1-yl]-benzamide [IND_CC-674]",67
